According to US8686150B2 (Sanofi, priority 2011, dated 2014):

Target: T1, human full-length recombinant PKC βII (Homo sapiens, UniProt P05771)
T1 construct: Active human full-length recombinant PKC βII; purchased Invitrogen GmbH, Darmstadt, Germany
Assay: Determination of PKC βII inhibition (Caliper mobility-shift kinase assay, Fluorescein-RFARKGSLRQKNV peptide substrate)
Type: biochemical
Conditions: example compounds at a final concentration of 1.14 μM (±0.15 μM)
Procedure, shortened: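 Full-length PKC βII (30 ng/ml in pre-dilution) with PS/DAG/Ca2+ activators, pH 7.4; fluorescein peptide and ATP at 3 μM and 120 μM before mixing. Reaction ran 60 min at 32 °C, was EDTA-stopped, and was read by mobility shift. % inhibition came from product/(substrate+product) peak heights, tested at 1.14 μM final.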

T1 sequence (P05771 1-673 isoform P05771-2): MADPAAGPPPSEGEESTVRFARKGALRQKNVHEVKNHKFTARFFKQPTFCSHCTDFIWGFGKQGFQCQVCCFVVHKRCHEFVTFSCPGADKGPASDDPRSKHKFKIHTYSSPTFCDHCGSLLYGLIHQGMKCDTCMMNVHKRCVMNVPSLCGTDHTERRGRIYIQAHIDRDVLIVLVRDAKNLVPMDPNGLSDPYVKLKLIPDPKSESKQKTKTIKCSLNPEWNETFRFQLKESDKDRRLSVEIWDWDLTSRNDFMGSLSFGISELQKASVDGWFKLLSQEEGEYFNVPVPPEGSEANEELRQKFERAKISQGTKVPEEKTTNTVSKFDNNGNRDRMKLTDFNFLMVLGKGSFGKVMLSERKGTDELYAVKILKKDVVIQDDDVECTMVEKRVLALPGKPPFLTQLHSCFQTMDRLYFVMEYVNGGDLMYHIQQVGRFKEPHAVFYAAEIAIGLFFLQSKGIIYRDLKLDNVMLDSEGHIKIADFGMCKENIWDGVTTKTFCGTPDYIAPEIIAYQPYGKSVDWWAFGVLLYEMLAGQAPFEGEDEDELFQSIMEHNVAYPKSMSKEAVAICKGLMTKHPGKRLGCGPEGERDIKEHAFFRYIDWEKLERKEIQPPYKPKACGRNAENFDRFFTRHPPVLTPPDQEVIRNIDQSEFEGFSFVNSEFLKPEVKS

Structure (SMILES) | % Inhibition [%] | inhibition at 1.14 µM [%]
Cc1n[nH]c2nc(-c3ccc(O)c(F)c3)cc(C(=O)NC3CC4CCC(C3)N4C)c12 [Example 318, 6-(3-Fluoro-4-hydroxy-phenyl)-3-methyl-1H-pyrazolo[3,4-b]pyridine-4-carboxylic acid (3R)-8-methyl-8-aza-bicyclo[3.2.1]oct-3-yl)-amide] | 61 | –
Cc1n[nH]c2nc(-c3ccc(O)cc3)cc(C(=O)N3CCNCC3c3ccc(Br)cc3)c12 (centres unmarked) [Example 89, [2-(4-Bromo-phenyl)-piperazin-1-yl]-[6-(4-hydroxy-phenyl)-3-methyl-1H-pyrazolo[3,4-b]pyridin-4-yl]-methanone] | – | 92
Cc1n[nH]c2nc(-c3ccc(O)cc3F)cc(C(=O)N3CCNCC3)c12 [Example 11, [6-(2-Fluoro-4-hydroxy-phenyl)-3-methyl-1H-pyrazolo[3,4-b]pyridin-4-yl]-piperazin-1-yl-methanone] | – | 101
CCOc1cc(-c2cc(C(=O)N3CCNCC3)c3c(C)n[nH]c3n2)ccc1O [Example 15, [6-(3-Ethoxy-4-hydroxy-phenyl)-3-methyl-1H-pyrazolo[3,4-b]pyridin-4-yl]-piperazin-1-yl-methanone] | – | 35
Cc1n[nH]c2nc(-c3ccc(O)c(F)c3)cc(C(=O)NCC(C)(c3ccccn3)N3CCCC3)c12 (centres unmarked) [Example 370, 6-(3-Fluoro-4-hydroxy-phenyl)-3-methyl-1H-pyrazolo[3,4-b]pyridine-4-carboxylic acid (2-pyridin-2-yl-2-pyrrolidin-1-yl-propyl)-amide] | – | 48
CCN1CC2CC1CN2C(=O)c1cc(-c2ccc(O)c(F)c2)nc2[nH]nc(C)c12 (centres unmarked) [Example 358, (5-Ethyl-2,5-diaza-bicyclo[2.2.1]hept-2-yl)-[6-(3-fluoro-4-hydroxy-phenyl)-3-methyl-1H-pyrazolo[3,4-b]pyridin-4-yl]-methanone] | – | 28
Cc1n[nH]c2nc(-c3ccc(O)cc3)cc(C(=O)N3C[C@@H](C)NC[C@@H]3c3ccccc3)c12 [Example 458, [6-(4-Hydroxy-phenyl)-3-methyl-1H-pyrazolo[3,4-b]pyridin-4-yl]-((2S,5R)-5-methyl-2-phenyl-piperazin-1-yl)-methanone] | – | 44
Cc1n[nH]c2nc(-c3ccc(O)cc3F)cc(C(=O)N3CCC(N)(c4ccccc4)CC3)c12 [Example 415, (4-Amino-4-phenyl-piperidin-1-yl)-[6-(2-fluoro-4-hydroxy-phenyl)-3-methyl-1H-pyrazolo[3,4-b]pyridin-4-yl]-methanone] | – | 90
CCN1CCCN(C(=O)c2cc(-c3ccc(O)cc3)nc3[nH]nc(C(F)(F)F)c23)CC1 [Example 414, (4-Ethyl-[1,4]diazepan-1-yl)-[6-(4-hydroxy-phenyl)-3-trifluoromethyl-1H-pyrazolo[3,4-b]pyridin-4-yl]-methanone] | – | 30
Cc1n[nH]c2nc(-c3ccc(O)cc3)cc(C(=O)NC3CC4(CC(N)C4)C3)c12 (centres unmarked) [Example 191, 6-(4-Hydroxy-phenyl)-3-methyl-1H-pyrazolo[3,4-b]pyridine-4-carboxylic acid (6-amino-spiro[3.3]hept-2-yl)-amide] | – | 78
CCC[C@@H]1CN(C(=O)c2cc(-c3ccc(O)c(F)c3)nc3[nH]nc(C)c23)CCN1 [Example 291, [6-(3-Fluoro-4-hydroxy-phenyl)-3-methyl-1H-pyrazolo[3,4-b]pyridin-4-yl]-((R)-3-propyl-piperazin-1-yl)-methanone] | – | 89
Cc1n[nH]c2nc(-c3ccc(O)cc3)cc(C(=O)NCC(c3ccccc3)N3CCCC3)c12 (centres unmarked) [Example 391, 6-(4-Hydroxy-phenyl)-3-methyl-1H-pyrazolo[3,4-b]pyridine-4-carboxylic acid (2-phenyl-2-pyrroiidin-1-yl-ethyl)-amide] | – | 84
Cc1cc(O)ccc1-c1cc(C(=O)N2CCNCC2c2ccc(F)cc2F)c2c(C)n[nH]c2n1 (centres unmarked) [Example 152, [2-(2,4-Difluoro-phenyl)-piperazin-1-yl]-[6-(4-hydroxy-2-methyl-phenyl)-3-methyl-1H-pyrazolo[3,4-b]pyridin-4-yl]-methanone] | – | 94
Cc1n[nH]c2nc(-c3ccc(O)cc3)cc(C(=O)N(C)C3CCN(C)CC3)c12 [Example 272, 6-(4-Hydroxy-phenyl)-3-methyl-1H-pyrazolo[3,4-b]pyridine-4-carboxylic acid methyl-(1-methyl-piperidin-4-yl)-amide] | – | 85
Cc1n[nH]c2nc(-c3ccc(O)cc3F)cc(C(=O)N3C[C@@H](C)NC[C@@H]3C)c12 [Example 429, ((2S,5R)-2,5-Dimethyl-piperazin-1-yl)-[6-(2-fluoro-4-hydroxy-phenyl)-3-methyl-1H-pyrazolo[3,4-b]pyridin-4-yl]-methanone] | – | 98
Cc1n[nH]c2nc(-c3ccc(O)c(F)c3)cc(C(=O)N3CCC4(CNCCO4)C3)c12 (centres unmarked) [Example 323, [6-(3-Fluoro-4-hydroxy-phenyl)-3-methyl-1H-pyrazolo[3,4-b]pyridin-4-yl]-(6-oxa-2,9-diaza-spiro[4.5]dec-2-yl)-methanone] | – | 42
Cc1n[nH]c2nc(-c3ccc(O)cc3)cc(C(=O)NC3CC4CCC(C3)N4C)c12 (centres unmarked) [Example 219, 6-(4-Hydroxy-phenyl)-3-methyl-1H-pyrazolo[3,4-b]pyridine-4-carboxylic acid (8-methyl-8-aza-bicyclo[3.2.1]oct-3-yl)-amide] | – | 89
Cc1n[nH]c2nc(-c3ccc(O)c(F)c3)cc(C(=O)N3C[C@H]4CNC[C@H]4C3)c12 [Example 306, [6-(3-Fluoro-4-hydroxy-phenyl)-3-methyl-1H-pyrazolo[3,4-b]pyridin-4-yl]-(3aR,6aS)-hexahydro-pyrrolo[3,4-c]pyrrol-2-yl-methanone] | – | 76
Cc1n[nH]c2nc(-c3ccc(O)c(F)c3)cc(C(=O)NCC(C)(C)CN)c12 [Example 363, 6-(3-Fluoro-4-hydroxy-phenyl)-3-methyl-1H-pyrazolo[3,4-b]pyridine-4-carboxylic acid (3-amino-2,2-dimethyl-propyl)-amide] | – | 72
Cc1n[nH]c2nc(-c3ccc(O)c(F)c3)cc(C(=O)N3CCNCC3c3cccnc3)c12 (centres unmarked) [Example 327, [6-(3-Fluoro-4-hydroxy-phenyl)-3-methyl-1H-pyrazolo[3,4-b]pyridin-4-yl]-(2-pyridin-3-yl-piperazin-1-yl)-methanone] | – | 92
Cc1n[nH]c2nc(-c3ccc(O)cc3)cc(C(=O)NCCNC(C)C)c12 [Example 50, 6-(4-Hydroxy-phenyl)-3-methyl-1H-pyrazolo[3,4-b]pyridine-4-carboxylic acid (2-isopropylamino-ethyl)-amide] | – | 81
Cc1n[nH]c2nc(-c3ccc(O)cc3)cc(C(=O)N3CCNCC3c3ccc(C(F)(F)F)cc3)c12 (centres unmarked) [Example 97, [6-(4-Hydroxy-phenyl)-3-methyl-1H-pyrazolo[3,4-b]pyridin-4-yl]-[2-(4-trifluoromethyl-phenyl)-piperazin-1-yl]-methanone] | – | 96
Cc1n[nH]c2nc(-c3ccc(O)cc3F)cc(C(=O)N3C[C@H](C)NC[C@@H]3C)c12 [Example 430, ((2S,5S)-2,5-Dimethyl-piperazin-1-yl)-[6-(2-fluoro-4-hydroxy-phenyl)-3-methyl-1H-pyrazolo[3,4-b]pyridin-4-yl]-methanone] | – | 92
